Measurements: patent US7880014B2, “Angiotensin II receptor antagonists” (Merck Sharp & Dohme Corp., priority 2006, dated 2011)

What was measured:
rabbit aortic slices = assay: vessel relaxation assay (in vitro, tissue-based, rabbit aortic slices); format: cell-based
CYP3A4 = molecular target: T1, CYP3A4 (Homo sapiens, UniProt P08684); assay: CYP3A4 Time-Dependent Inhibition Assay (pooled human liver microsomes, testosterone 6β-hydroxylation); format: in vitro ADME; details: human liver microsomes 1 mg/mL, preincubation 5 to 30 min
T1 construct: Pooled human liver microsomes (1 mg/mL) were preincubated at 37° C; from tissue; host or cells: pooled human liver microsomes
Protocol: The incubation mixtures were diluted 10-fold with the same buffer containing 250 μM testosterone and an NADPH-generating system. The incubation was continued for an additional 10 min to monitor the extent of testosterone 6β-hydroxylation. The first order rate constants (kobs) for inactivation at 10 and 50 μM were calculated from the negative slope of the lines by linear regression analysis of the natural logarithm of the remaining activity as a function of time using KaleidaGraph Synergy Software (Reading, Pa.).

T1 sequence (P08684 whole entry): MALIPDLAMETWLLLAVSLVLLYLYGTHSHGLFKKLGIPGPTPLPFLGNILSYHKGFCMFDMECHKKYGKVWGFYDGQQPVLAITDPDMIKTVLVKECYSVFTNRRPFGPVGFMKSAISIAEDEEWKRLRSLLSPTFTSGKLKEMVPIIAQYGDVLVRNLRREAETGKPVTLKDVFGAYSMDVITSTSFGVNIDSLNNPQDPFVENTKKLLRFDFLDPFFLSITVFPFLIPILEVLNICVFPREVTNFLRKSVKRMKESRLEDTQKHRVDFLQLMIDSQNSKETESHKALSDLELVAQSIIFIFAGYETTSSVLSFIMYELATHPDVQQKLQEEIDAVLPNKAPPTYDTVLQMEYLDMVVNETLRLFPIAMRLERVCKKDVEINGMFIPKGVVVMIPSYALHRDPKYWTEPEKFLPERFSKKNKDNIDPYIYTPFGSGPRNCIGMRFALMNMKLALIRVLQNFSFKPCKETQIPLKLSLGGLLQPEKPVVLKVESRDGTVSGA

| Structure (SMILES) | EC50 (rabbit aortic slices) [µM] | Rate Constant (kobs) at 10 μM (CYP3A4) [min⁻¹] | Rate Constant (kobs) at 50 μM (CYP3A4) [min⁻¹] |
| --- | --- | --- | --- |
| CCCCc1nc(Cl)c(C(=O)OC(C)OC(=O)OCCCC[C@H](CO[N+](=O)[O-])O[N+](=O)[O-])n1Cc1ccc(-c2ccccc2-c2nnn[nH]2)cc1 (single isomer, unassigned) [Compound 3] | 1.3 | ~0.077 | 0.076 |
| CCCCc1nc(Cl)c(C(=O)OC(C)OC(=O)OCCCC[C@H](CO[N+](=O)[O-])O[N+](=O)[O-])n1Cc1ccc(-c2ccccc2-c2nnn[nH]2)cc1 (single isomer, unassigned) [Compound 2] | – | 0.026 | 0.037 |
